# Test system: Blumeria graminis fsp. hordei
# Assay: In vivo preventive test on Blumeria graminis (barley)
# Conditions: 500 ppm of active ingredient, evaluated 7 days after inoculation
# Description: EXAMPLE B: IN VIVO PREVENTIVE TEST ON BLUMERIA GRAMINIS (BARLEY) Solvent: 49 parts by weight of N,N-dimethylacetamide Emulsifier: 1 part by weight of alkylaryl polyglycol ether To produce a suitable preparation of active compound, 1 part by weight of active compound or active compound combination is mixed with the stated amounts of solvent and emulsifier, and the concentrate is diluted with water to the desired concentration. To test for preventive activity, young plants are sprayed with the preparation of active compound or active compound combination at the stated rate of application. After the spray coating has been dried, the plants are dusted with spores of Blumeria graminis fsp. hordei. The plants are placed in the greenhouse at a temperature of approximately 18° C. and a relative atmospheric humidity of approximately 80% to promote the development of mildew pustules. The test is evaluated 7 days after the inoculation. 0% means an efficacy which corresponds to that of the untreated control, while an efficacy of 100% means that no disease is observed. Under these conditions, total protection is observed at a dose of 500 ppm of active ingredient with the following compounds from table B: […]
row,SMILES,Efficacy [%]
1,CCc1nn(C)c(F)c1C(=O)N(C1CC1)C(C)C1Cc2ccccc2C1 (centres unmarked) [Example 12],100
2,CC(C1Cc2ccccc2C1)N(C(=O)c1cn(C)nc1C(F)F)C1CC1 (centres unmarked) [Example 13],100
3,Cc1nn(C)c(F)c1C(=O)N(C1CC1)C(C)C1Cc2ccccc2C1 (centres unmarked) [Example 11],100
4,CC(C1CCc2ccccc2C1)N(C(=O)c1c(C(F)F)nn(C)c1F)C1CC1 (centres unmarked) [Example 16],100
5,"CC(C1Cc2ccccc2C1)N(C(=O)c1c(C(F)F)nn(C)c1F)C1CC1 (centres unmarked) [Example 14, N-cyclopropyl-3-(difluoromethyl)-N-[1-(indan-2-yl)ethyl]-5-fluoro-1-methyl-1H-pyrazole-4-carboxamide]",100

# — patent US10093611B2, “Benzocycloalkenes as antifungal agents” (Bayer Intellectual Property GmbH, priority 2010, dated 2018)
